Experiment [1] deals with T1, hOT-R (Homo sapiens, UniProt P30559).
T1 sequence (P30559 1-389): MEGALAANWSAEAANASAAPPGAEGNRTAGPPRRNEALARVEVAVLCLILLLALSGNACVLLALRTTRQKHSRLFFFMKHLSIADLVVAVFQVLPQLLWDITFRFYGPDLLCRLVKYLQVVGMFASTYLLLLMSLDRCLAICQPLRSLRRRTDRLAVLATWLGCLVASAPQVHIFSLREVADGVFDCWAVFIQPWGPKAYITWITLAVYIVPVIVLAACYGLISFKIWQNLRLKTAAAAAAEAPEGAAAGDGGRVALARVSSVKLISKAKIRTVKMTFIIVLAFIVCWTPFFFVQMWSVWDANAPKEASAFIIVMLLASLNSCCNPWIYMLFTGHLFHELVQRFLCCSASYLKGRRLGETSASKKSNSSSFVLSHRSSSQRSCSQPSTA
Kind of experiment: In vitro binding assay (SPA), competition with [125I]-OVTA on membranes from HEK293EBNA cells expressing the hOT receptor. The arrangement: expressed in transfected cells; host or cells: HEK293EBNA. Particulars: 0.2 nM [125I]-OVTA, read-out: Binding affinity human OT-R IC50. On the procedure: a) In Vitro Binding Assay (SPA)
Membranes from HEK293EBNA cells expressing the hOT receptor were resuspended in buffer containing 50 mM Tris-HCl, pH 7.4,5 mM MgCl2 and 0.1% BSA (w/v). The membranes (2–4 μg) were mixed with 0.1 mg wheat-germ aglutinin (WGA) SPA bead (type A) and increasing concentrations of [^125I]-OVTA (for saturation binding experiments) or 0.2 nM [^125I]-OVTA (for competition binding experiments). Non specific binding was deter-mined in the presence of 1 μM Oxytocin. The total assay volume was 100 μl. The plates were incubated at room temperature for 30 min and counted on a Mibrobeta plate counter. The competition binding data were analysed using the iterative, nonlinear, curve-fitting program, Prism.
The binding affinities to the oxytocin receptor of the pyrrolidine derivatives claimed in the formula I were assessed using the above described in vitro biological assay. The values refer to the binding capacity of the example compounds according to formula I to the Oxytocin receptor. From the values shown in Table 1 it can be derived that said test compounds according to formula I do show a significant binding to the Oxytocin receptor.

In experiment [2] the target is T1, hOT-R. Kind of experiment: Functional assay No. 1: inhibition of oxytocin-induced Ca2+-mobilization by FLIPR. The format is cell-based. Also noted: expressed in transfected cells; host or cells: HEK cells (CHO cells also mentioned). Particulars: oxytocin-induced intracellular Ca2+ mobilization, read-out: Inhibition of Ca^2+ mobilization, hOT-R IC50. The procedure:
c) Functional Assay No. 1: Inhibition of Ca^2+-Mobilization by FLIPR
Preparing the plates: FLIPR-plates were pre-coated with PLL 10 μg/ml+0.1% gelatine for 30 min up to 2 days at 37° C. (for HEK-cells). The cells were plated out into 96-well plates (60000 cells/well).
Labelling with fluo-4: 50 μg fluo-4 were dissolved in 20 μl pluronic acid (20% in DMSO). The dissolved fluo-4 was then diluted in 10 ml DMEM-F12 medium without FCS. The medium was removed from the plates, followed by one wash with DMEM-F12 medium. Now, 100 μl of the DMEM-F12 medium containing fluo-4 were added and the cells incubated for 1–1.5 h (CHO-cells), and 1.5–2 h (HEK-cells).
Buffer: 145 mM NaCl, 5 mM KCl, 1 mM MgCl2, 10 mM Hepes, 10 mM Glucose, EGTA. Adjust to pH 7.4.
Preparation of agonists and antagonists: A minimum of 80 μl/well of agonists and anta-gonists (5×) in the above buffer (1×) were prepared (96-well plates).
The activities of the pyrrolidine derivatives according to formula I were assessed using the above described in vitro biological assay. The values refer to the capacity of the example compounds according to formula I to effectively antagonize oxytocin-induced intracellular Ca^2+-mobilization mediated by the Oxytocin receptor.
A general note: A change in cytosolic calcium serves as a functional read-out for many receptors and channels.

For experiment [3], the system named is oxytocin-induced uterine contractions in the rat. Kind of experiment: In vivo model for inhibition of uterine contractions (oxytocin-induced, anaesthetised DES-treated rats). Particulars: intravenous, PEG400/saline 50:50, 5 ml/kg infusion. The procedure: e) In Vivo Model for Inhibition of Uterine Contractions
Non-pregnant Charles River CD(SD) BR female rats (9–10 weeks old, 200–250 g) were treated at 18 and 24 hours before the experiment with 250 μg/kg, i.p. diethylstilbestrol (DES). For the assay, the animal was anaesthetised by urethane (1.75 g/kg, i.p.) and placed on an homeothermic operating table. The trachea was isolated and cannulated with a suitable polyethylene (PE) tubing. A midline incision at the hypogastrium level was made and one uterine horn exposed, its cephalic end cannulated with a PE240 tubing and, after filling the internal cavity with 0.2 ml of sterile physiological saline, connected to a “Gemini” amplifying/recording system via a P23ID Gould Statham pressure transducer. For the i.v. route of administration of the test compounds, one jugular vein was isolated and cannulated with a PE60 tubing connected to a butterfly needle to allow the administration by a dispensing syringe. In the case of intraduodenal administration of the test compounds, the duodenum was isolated and similarly cannulated through a small incision in its wall. One carotid artery was also isolated and cannulated with PE60 catheter and connected to a suitable syringe for blood sample collection (see below). After a stabilization period, the same dose of oxytocin was repeatedly injected intravenously at 30-min intervals. […] Further injections of the same dose of oxytocin were then made for a suitable time after treatment to assess inhibitory effects of the compounds under study. The contractile response of the uterus to oxytocin was quantified by measuring the intrauterine pressure and the number of contractions. The effect of the reference and test compounds were evaluated by comparing pre- and post-treatment pressure values. In addition, at 2, 30, 90 and 210 minutes after test compound administration, a 0.5-ml blood sample was withdrawn from the cannulated carotid artery of each experimental animal. Plasma was obtained by standard laboratory procedure and the resulting samples were stored at −20° C.
The activities of the pyrrolidine derivatives claimed in the formula I were assessed using the above described in vivo biological assay. The values refer to the capacity of the example compound according to formula I to effectively antagonize oxytocin-induced -uterine contractions in the rat.

The IC50 is the concentration that inhibits the measured activity by half. Regarding `CON=C1C[C@@H](C(=O)N[C@@H]2CCCC[C@H]2CO)N(C(=O)c2ccc(-c3ccccc3OC)cc2)C1` [Example 384, (2S,4EZ)-N-[(1R,2R)-2-(hydroxymethyl)cyclohexyl]-1-[(2′-methoxy[1,1′-biphenyl]-4-yl)carbonyl]-4-(methoxyimino)-2-pyrrolidinecarboxamide], the IC50 in experiment [1] stood at 0.55 µM. Turning to `CO/N=C1/C[C@@H](c2nc3ccccc3[nH]2)N(C(=O)c2ccc(-c3ccccc3)cc2)C1` [(3Z,5S)-5-(1H-benzimidazol-2-yl)-1-([1,1′-biphenyl]-4-ylcarbonyl)-3-pyrrolidinone O-methyloxime], the IC50 stood at 0.63 µM in experiment [1] and 0.4 µM in experiment [2]. As to `CO/N=C1/C[C@@H](C(=O)NC[C@@H](O)c2ccccc2)N(C(=O)c2ccc(-c3ccccc3C)cc2)C1` [drawing 18, (2S,4Z)-N-[(2S)-2-hydroxy-2-phenylethyl]-4-(methoxyimino)-1-[(2′-methyl[1,1′-biphenyl]-4-yl)carbonyl]-2-pyrrolidinecarboxamide], the “% Reduction of Utenne Contraction” value is −23.8 ± 4.1% in experiment [3] (dose 0.3 mg/kg); −27.6 ± 4.6% in experiment [3] (dose 1 mg/kg); −50.4 ± 5.8% in experiment [3] (dose 3 mg/kg); −65.6 ± 6.4% in experiment [3] (dose 10 mg/kg); −76.5 ± 4.24% in experiment [3] (dose 30 mg/kg). The IC50 in experiment [1] came to 0.07 µM; in experiment [2] it was 0.03 µM. As for `CON=C1C[C@@H](C(=O)N2CCC(O)CC2)N(C(=O)c2ccc(-c3ccccc3C)cc2)C1` [Example 372, (3EZ,5S)-5-[(4-hydroxy-1-piperidinyl)carbonyl]-1-[(2′-methyl[1,1′-biphenyl]-4-yl)carbonyl]-3-pyrrolidinone O-methyloxime], the IC50 in experiment [1] worked out at 0.3 µM. Take `CON=C1C[C@@H](C(=O)NC[C@@H](O)c2ccccc2)N(C(=O)c2ccc(-c3ccccc3Cl)cc2)C1` [Example 438, (2S,4EZ)-N-[(2S)-2-hydroxy-2-phenylethyl]-4-(methoxyimino)-1-{[2′-chloro[1,1′-biphenyl]-4-yl]carbonyl}-2-pyrrolidinecarboxamide]: the half-inhibitory concentration (IC50) in experiment [1] amounted to 0.17 µM.

For the compound `O=C(NCC(O)c1ccccc1)[C@@H]1C/C(=C/Cl)CN1C(=O)c1ccc(-c2ccccc2)cc1` (mixture of isomers) [(2S,4Z)-1-([1,1′-biphenyl]-4-ylcarbonyl)-4-(chloromethylene)-N-[(2RS)-2-hydroxy-2-phenylethyl]-2-pyrrolidinecarboxamide], the IC50 in experiment [1] is 0.35 µM.

On to `CON=C1C[C@@H](C(=O)NCCC(N)=O)N(C(=O)c2ccc(-c3ccccc3C)cc2C)C1` [Example 410, (2S,4EZ)-N-(3-amino-3-oxopropyl)-1-[(2′,3-dimethyl[1,1′-biphenyl]-4-yl)carbonyl]-4-(methoxyimino)-2-prrolidinecarboxamide], for which the IC50 in experiment [1] was found to be 0.54 µM. As for `CON=C1C[C@@H](C(=O)NCC[C@@H](O)c2ccccc2)N(C(=O)c2ccc(-c3ccccc3C)cc2)C1` [Example 433, (2S,4EZ)-N-[(3R)-3-hydroxy-3-phenylpropyl]-4-(methoxyimino)-1-[(2′-methyl[1,1′-biphenyl]-4-yl)carbonyl]-2-pyrrolidinecarboxamide], in experiment [2], the IC50 is 0.32 µM. Take `CON=C1C[C@@H](C(=O)NCCCO)N(C(=O)c2ccc(-c3ccccc3C)cc2)C1` [Example 377, (2S,4EZ)-N-(3-hydroxypropyl)-4-(methoxyimino)-1-[(2′-methyl[1,1′-biphenyl]-4-yl)carbonyl]-2-pyrrolidinecarboxamide]: the IC50 in experiment [1] was 0.37 µM.

On to `CO/N=C1/C[C@@H](C(=O)NCCO)N(C(=O)c2ccc(-c3ccccc3)cc2)C1` [(2S,4Z)-1-([1,1′biphenyl]-4-ylcarbonyl)-N-(2-hydroxyethyl)-4-(methoxyimino)-2-pyrrolidinecarboxamide], for which the 50% inhibitory concentration (IC50) in experiment [2] came out at 0.65 µM. Take `CO/N=C1\C[C@@H](C(=O)NC[C@@H](O)c2ccccc2)N(C(=O)c2ccc(-c3ccccc3C)cc2)C1` [drawing 17, (2S,4E)-N-[(2S)-2-hydroxy-2-phenylethyl]-4-(methoxyimino)-1-[(2′-methyl[1,1′-biphenyl]-4-yl)carbonyl]-2-pyrrolidinecarboxamide]: the IC50 in experiment [1] amounted to 0.13 µM; in experiment [2], 0.07 µM. With `CON=C1C[C@@H](C(=O)NC[C@@H](O)c2ccccc2)N(C(=O)c2cccc(Oc3ccccc3)c2)C1` (racemic) [Example 278], the 50% inhibitory concentration (IC50) in experiment [1] came to 2.3 µM.

Source of the values: patent US7211601B2, “Pharmaceutically active pyrrolidine derivatives” (Applied Research Systems Ars Holding N.V., priority 2000, dated 2007).
